ChEMBL document CHEMBL1135660, “Design, synthesis, and tripeptidyl peptidase II inhibitory activity of a novel series of (S)-2,3-dihydro-2-(4-alkyl-1H-imidazol-2-yl)-1H-indoles” (J Med Chem, 2002)

Target: Tripeptidyl-peptidase 2 (Rattus norvegicus, UniProt Q64560)
Experiment: Inhibitory activity against tripeptidyl peptidase II purified from rat liver

Sequence of Tripeptidyl-peptidase 2 (Q64560 whole entry): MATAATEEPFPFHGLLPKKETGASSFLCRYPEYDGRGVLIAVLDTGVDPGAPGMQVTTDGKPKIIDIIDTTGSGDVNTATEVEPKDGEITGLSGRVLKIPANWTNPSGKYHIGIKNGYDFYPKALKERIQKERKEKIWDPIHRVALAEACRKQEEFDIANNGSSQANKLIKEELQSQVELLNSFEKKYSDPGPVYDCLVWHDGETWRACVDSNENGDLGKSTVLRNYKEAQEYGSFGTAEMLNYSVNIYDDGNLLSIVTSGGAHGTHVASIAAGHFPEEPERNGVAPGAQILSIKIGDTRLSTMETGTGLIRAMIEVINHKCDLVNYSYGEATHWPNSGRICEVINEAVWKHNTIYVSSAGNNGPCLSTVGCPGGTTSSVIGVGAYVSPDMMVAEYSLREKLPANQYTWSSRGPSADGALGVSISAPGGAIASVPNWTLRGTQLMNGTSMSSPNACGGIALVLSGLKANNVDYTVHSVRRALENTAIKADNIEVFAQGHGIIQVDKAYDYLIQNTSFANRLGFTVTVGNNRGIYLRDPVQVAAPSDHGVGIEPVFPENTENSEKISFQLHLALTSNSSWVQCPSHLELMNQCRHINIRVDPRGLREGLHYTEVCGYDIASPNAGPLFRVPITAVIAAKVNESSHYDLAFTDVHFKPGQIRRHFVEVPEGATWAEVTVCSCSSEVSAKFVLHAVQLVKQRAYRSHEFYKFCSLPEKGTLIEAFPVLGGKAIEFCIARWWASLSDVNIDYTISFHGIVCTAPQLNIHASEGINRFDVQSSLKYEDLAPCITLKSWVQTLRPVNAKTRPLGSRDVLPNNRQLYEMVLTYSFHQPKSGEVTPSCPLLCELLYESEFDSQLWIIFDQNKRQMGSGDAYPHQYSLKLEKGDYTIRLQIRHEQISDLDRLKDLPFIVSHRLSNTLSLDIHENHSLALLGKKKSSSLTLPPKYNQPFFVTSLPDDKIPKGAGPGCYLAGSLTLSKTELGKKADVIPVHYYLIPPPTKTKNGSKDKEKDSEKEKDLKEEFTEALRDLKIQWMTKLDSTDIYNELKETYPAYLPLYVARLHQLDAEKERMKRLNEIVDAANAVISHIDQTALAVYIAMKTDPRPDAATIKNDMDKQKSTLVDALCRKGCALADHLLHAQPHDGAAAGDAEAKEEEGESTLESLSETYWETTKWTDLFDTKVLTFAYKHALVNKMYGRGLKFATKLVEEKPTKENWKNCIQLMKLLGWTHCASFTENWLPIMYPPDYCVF

SMILES | IC50 [µM]
CCc1c[nH]c([C@@H]2Cc3ccccc3N2C(=O)[C@H](C)N)n1 | > 10
CC[C@H](N)C(=O)N1c2ccccc2C[C@H]1c1ncc(C)[nH]1 | 0.023
CC[C@@H]1NC(=O)[C@@H]2Cc3ccccc3N2C1=O | > 10
CCCc1cnc([C@@H]2Cc3ccccc3N2C(C)=O)[nH]1 | > 10
